In PMC4494349, “Epitope Prediction Assays Combined with Validation Assays Strongly Narrows down Putative Cytotoxic T Lymphocyte Epitopes” (Vaccines, 2015):

Experiments:
[1] = molecular target: T1, H-2K^b (Mus musculus, UniProt P01901); assay: MHC class I stabilization assay on RMA-S cells, H-2K^b surface expression; details: for MHC I Stabilization Assay, fluorescence index class, H-2K^b: RMA-S cells 26 °C 4 h then 37 °C 1 h, flow cytometry
T1 sequence (P01901 22-369): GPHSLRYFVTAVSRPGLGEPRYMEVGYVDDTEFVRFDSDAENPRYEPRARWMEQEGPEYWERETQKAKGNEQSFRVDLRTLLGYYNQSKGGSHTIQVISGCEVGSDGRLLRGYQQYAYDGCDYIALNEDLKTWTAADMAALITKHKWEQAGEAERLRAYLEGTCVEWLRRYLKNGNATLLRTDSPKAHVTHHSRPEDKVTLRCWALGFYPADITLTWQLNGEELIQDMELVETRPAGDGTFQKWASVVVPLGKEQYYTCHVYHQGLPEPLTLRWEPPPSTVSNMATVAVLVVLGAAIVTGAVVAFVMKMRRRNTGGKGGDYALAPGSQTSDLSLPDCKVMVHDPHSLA
T1 sequence (P01887 21-119 partner): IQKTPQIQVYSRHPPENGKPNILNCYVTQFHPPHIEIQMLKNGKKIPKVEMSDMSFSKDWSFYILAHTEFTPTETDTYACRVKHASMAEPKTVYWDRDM
Protocol: RMA-S cells were maintained in IMDM (Life Technologies, Bleiswijk, The Netherlands) supplemented with 10% FBS and 100 U/mL penicillin and 100 μg/mL streptomycin (Life Technologies). RMA-S cells were cultured at 26 °C for 48 h to induce expression of MHC class I molecules. Cells were then incubated with various concentrations of synthetic peptides at 26 °C for 4 h, followed by a 1-h culture at 37 °C. […] The surface expression of MHC class I molecules were analyzed by FACSCalibur cytometer (BD Biosciences, Breda, The Netherlands) and data analyzed with FlowJo software (Treestar, Ashland, OR, USA). Fluorescence index was calculated by dividing the median fluorescence intensity (MFI) value of cells incubated with SLPs by the MFI value of cells incubated with equivalent concentration of DMSO.

[2] = molecular target: T2, H-2D^b (Mus musculus, UniProt P01899); assay: MHC class I stabilization assay on RMA-S cells, H-2D^b surface expression; type: cell-based; details: for MHC I Stabilization Assay, fluorescence index class, H-2D^b: RMA-S cells 26 °C 4 h then 37 °C 1 h, flow cytometry; for H-2D^b binder class (weak, intermediate, strong) by stabilization of MHC class I on RMA-S cells: 10 μM (Figure 1a), in words
T2 sequence (P01899 25-362): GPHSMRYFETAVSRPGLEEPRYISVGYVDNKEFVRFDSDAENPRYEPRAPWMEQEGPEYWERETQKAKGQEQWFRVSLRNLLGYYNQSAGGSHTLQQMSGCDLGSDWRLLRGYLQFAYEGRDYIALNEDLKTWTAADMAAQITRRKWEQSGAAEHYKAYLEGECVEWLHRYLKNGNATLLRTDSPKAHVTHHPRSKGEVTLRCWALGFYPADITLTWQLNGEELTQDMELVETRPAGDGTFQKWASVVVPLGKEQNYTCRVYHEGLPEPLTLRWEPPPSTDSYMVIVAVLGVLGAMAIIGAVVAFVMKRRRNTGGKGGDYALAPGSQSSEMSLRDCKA
T2 sequence (P01887 21-119 partner): T1 sequence (P01887 21-119 partner)

[3] = synthetic long peptides, peptide concentration 10 μM, FI = MFI peptide / MFI DMSO

Row | Sequence | H-2D^b binder class (weak, intermediate, strong) by stabilization of MHC class I on RMA-S cells ([2]; synthetic long peptides) | MHC I Stabilization Assay, fluorescence index class, H-2D^b [2, 3] | further results
1 | SIINFEKL [OVA257-264] | – | – | Fluorescence index (FI), stabilization of H-2K^b ([1]; short peptides at 100 μM, strong binders): > 8; plateau of stabilization of H-2K^b molecules ([1]; short peptides, up to high peptide concentration (100 μM)): not detectable; MHC I Stabilization Assay, fluorescence index class, H-2K^b ([1]; short synthetic peptides, serially diluted (Figure 2b)): +++ (>8 +++); MHC I Stabilization Assay, fluorescence index class, H-2D^b ([2]; short synthetic peptides, serially diluted (Figure 2a)): ++ (0.5–1.5 ++)
2 | VPAAYAAQGYKVLVL [NS3_214-228] | intermediate (0.5–1.5: intermediate binders (++)) | ++ (0.5–1.5 ++) | H-2K^b binder class (weak, intermediate, strong) by stabilization of MHC class I on RMA-S cells ([1]; synthetic long peptides, 10 μM (Figure 1b), in words): weak (0.2–2: weak binders (+)); MHC I Stabilization Assay, fluorescence index class, H-2K^b [1, 3]: + (Fluorescence index of H-2K^b: 0.2–2 +)
3 | ATPPGSVTVSHPNIEEVA [NS3_323-340] | weak (0.2–0.5: weak binders (+)) | + (Fluorescence index of H-2D^b: 0.2–0.5 +) | –
4 | LSQTKQSGENFPYLVAY [NS3_547-563] | intermediate (0.5–1.5: intermediate binders (++)) | ++ (0.5–1.5 ++) | –
5 | RLGAVQNEVTLTHPITKY [NS3_601-618] | weak (0.2–0.5: weak binders (+)) | + (Fluorescence index of H-2D^b: 0.2–0.5 +) | –
6 | AETTVRLRAYMNTPGLPV [NS3_507-524] | strong (>1.5: strong binders (+++)) | +++ (>1.5 +++) | –
7 | IQMYTNVDQDLVGWPA [NS3_72-87] | weak (0.2–0.5: weak binders (+)) | + (Fluorescence index of H-2D^b: 0.2–0.5 +) | –
8 | ALGINAVAYYRGLDVSVI [NS3_383-400] | intermediate (0.5–1.5: intermediate binders (++)) | ++ (0.5–1.5 ++) | –
